Patent US20150374712A1, “Combinations of Dopamine D2 Receptor Blockade With Norepinephrine Reuptake Inhibition and with Norepinephrine Alpha 2 Receptor Blockade” (priority 2007, published 2015)
Entries after “also recorded” stand apart in the source; their conditions may differ.

Columns and labels:
[1] = system: Syrian golden hamster; assay: Chronic alcohol drinking in Syrian golden hamsters (free choice of alcohol and water); assay type: in vivo, Mesocricetus auratus
Protocol: (§1) All animals were given 24 hours/day access to 10-15% alcohol and water in two separate drinking bottles. Groups of animals (n=6-10/group) received daily injections of the specific drug or drug combination or vehicle for up to 4 weeks.

[2] = system: alcohol preferring P rat; assay: Initiation of alcohol drinking in alcohol-preferring P rats; assay type: in vivo
Protocol: as §1

[3] = system: Syrian golden hamster; conditions: vs vehicle, Example 1 (prior art, FIG. 1, Green et al. 2004); cited from earlier work

## Cc1nc2n(c(=O)c1CCN1CCC(c3noc4cc(F)ccc34)CC1)CCCC2 [risperidone]
[1]; hamster, low dose of risperidone, Examples 9-10, FIGS. 9, 10
  alcohol drinking (chronic drinking): only a modest effect on alcohol drinking
[2]; low dose of risperidone, Example 11, FIG. 11
  alcohol drinking (initiation of alcohol drinking): only a modest effect on alcohol drinking

## O=C(CCCN1CCC(O)(c2ccc(Cl)cc2)CC1)c1ccc(F)cc1 [haloperidol]
[3]
  chronic alcohol drinking: No dose of haloperidol tested had an effect on alcohol drinking; also recorded: very little effect on chronic alcohol drinking
[2]; low-dose haloperidol, Example 7, FIG. 7
  initiation of alcohol drinking: minimal ability to blunt the initiation of alcohol drinking

## CN1CCN(C2=Nc3cc(Cl)ccc3Nc3ccccc32)CC1 [clozapine]
[1]; Syrian golden hamster, chronic clozapine, Example 2, FIG. 2, unpublished data
  duration of clozapine's effect on alcohol drinking: at least 1 month
